Results taken from US11590129B2, “Combination therapy with an antitumor alkaloid” (PHARMA MAR, S.A., priority 2010, dated 2023).
Where two headings read alike, the source gives them in different places.

Columns and labels:
[1] = system: HT-29 human colon adenocarcinoma cell line; experiment: cells; details: Homo sapiens, HT-29, 72 h
In short: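 HT-29 cells (5,000/well) were attached for 24 h, then exposed to vehicle or compounds for 72 h. Viability was read by MTT reduction, with 8 h MTT at 37° C and formazan dissolved in DMSO. Values are % of control cell growth.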

[2] = system: A673 human rhabdomyosarcoma cell line; experiment: cells; details: Homo sapiens, A673, 72 h
In short: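 A673 cells seeded at 5,000 per well, grown 24 h drug-free, then exposed to compounds for 72 h. Viability by MTT reduction (8 h, 37 °C), formazan dissolved in DMSO. Results expressed as percentage of control cell growth.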

[3] = system: IGROV-1 human ovarian adenocarcinoma cell line; experiment: cells; details: Homo sapiens, IGROV-1, 72 h
[4] = system: PC-3 human prostate cancer cell line; experiment: cells; details: Homo sapiens, PC-3, 72 h
In short: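 Cells seeded at 5,000/well, grown 24 h drug-free, then exposed to vehicle or test compounds for 72 h. Viability by MTT reduction (8 h, 37 °C), formazan dissolved in DMSO. Values given as percentage of control cell growth.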

[5] = system: PANC-1 human pancreatic carcinoma cell line; experiment: cells; details: Homo sapiens, PANC-1, 72 h
Procedure: (§1) a. […] Briefly, cells were harvested and seeded in 96 well microtiter plates at a density of 5,000 cells in 150 μL of culture medium and incubated for 24 hours in drug-free medium before treatment with vehicle alone or test compounds for 72 h.
(§2) The cytotoxic effect was measured by the MTT reduction assay, in which 3-(4,5-Dimethylthiazol-2-yl)-2,5-diphenyltetrazolium bromide, a tetrazole, which is reduced to purple formazan in the mitochondria of living cells, was used. MTT (50 μL of 1 mg/mL stock solution) was added to the wells and incubated for 8 hours at 37° C. until formazan crystals were formed. After gently removing the culture medium, DMSO was added to dissolve the insoluble purple formazan product into a colored solution. […] Results were expressed as percentage of control cell growth.
(§3) b. In a second set of assays, A549 human tumor cells were incubated with PM01183 in combination with each of the agents mentioned above.
(§4) As a visual aid, response values were plotted on a scatter plot with dose ratios given on the x-axis and % response values on the y-axis. […] In cases where response values at the two endpoints were approximately equivalent, points lying above or below this predicted line of additivity could be interpreted as representing antagonistic or synergistic drug interaction, respectively.
(§5) Additional serial dilutions were prepared in serum-free culture medium to achieve a final 4× concentration. Aliquots of 50 μL of each diluted compound were added per well.
PANC-1 was the human pancreatic carcinoma cell line selected for this assay.

[6] = system: U87-MG human glioblastoma cell line; experiment: cells; details: Homo sapiens, U-87 MG, 72 h
[7] = system: RXF-393 human kidney carcinoma cell line; experiment: cells; details: Homo sapiens, RXF 393, 72 h
[8] = system: MDA-MB-231 human breast adenocarcinoma cell line; experiment: cells; details: Homo sapiens, MDA-MB-231, 72 h
SW1990 tumors = experiment: Human pancreatic tumor xenografts (SW1990) in athymic nude mice, tumor volume % T/C; assay type: in vivo
Procedure: Female athymic nude mice (Harlan Laboratories Models, S.L. (Barcelona, Spain) were utilized for all experiments. Animals were housed in individually ventilated cages, up to ten per cage in a 12-hour light-dark cycle at 21-23° C. and 40-60% humidity. The mice were allowed free access to irradiated standard rodent diet and sterilized water. Animals were acclimated for at least 5 days prior to tumor implantation with a tumor cell suspension.
Each animal was subcutaneously implanted on the right flank, using 26G needle and a 1 cc syringe, with 5×10^6 SW1990 cells, from in vitro passage 12, in 0.05 mL suspension of 50% Matrigel and 50% serum free medium, without antibiotics.
PM01183 was provided in the form of vials of lyophilized PM01183 cake which was reconstituted with water for infusion to a concentration of 0.2 mg/mL. The PM01183 stock solution was further diluted in 5% glucose solution for injection to the dosing formulation concentrations.
Dose level groups were administered either as single agents or in combination.
Comparison of the median tumor volume in the treatment groups (T) to the median tumor volume in the control group (T/C×100%) was used for evaluation of the antitumor efficacy.

[9] = system: A549 human lung carcinoma cell line; experiment: MTT cytotoxicity assay in A549 cells: IC50 of single agents and combinations with PM01183; assay type: cell-based; details: Homo sapiens; A549, 72 hours drug exposure, MTT; read-out: IC50
In short: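 A549 cells seeded at 5,000 per well, grown 24 h drug-free, then exposed to vehicle or compounds for 72 h, either singly or combined with PM01183. Combination responses plotted against dose ratio relative to an additivity line.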

[10] = system: HepG2 human hepatocellular liver carcinoma cell line; experiment: MTT cytotoxicity assay in HepG2 cells: IC50 of single agents and combinations with PM01183; assay type: cell-based; details: Homo sapiens
[11] = system: U-937 human lymphoma cell line; experiment: cells; details: Homo sapiens, U-937, 72 h
Procedure: (§6) Briefly, cells were seeded in 96 well microtiter plates at a density of 50000 cells per well in 150 μL of culture medium and incubated for 4-6 hours in drug-free medium before treatment with vehicle alone or test compounds for 72 hours.
(§7) After incubation, the cytotoxic effect was evaluated using a MTT reduction assay. 50 μL of MTT solution (1 mg/mL) were added to the wells and incubated for 15-17 hours at 37° C. until formazan crystals were formed. After gently removing the culture medium, DMSO was added to dissolve the insoluble purple formazan product into a colored solution. […] Results were expressed as percentage of control cell growth. The EC50 values (half-maximal effective concentration) used for the combination studies were calculated using Prism v5.02 software (GraphPad). EC50 was expressed as molar concentration and represented the mean of at least three independent assays.
(§8) Using these starting concentrations, constant serial dilutions were performed to generate the concentration-response curves for each set of drugs, alone and in combination.
(§9) Based on this equation, the term “combination index” (CI) is used as a quantitative measure of the degree of drug interactions. […] CI values were calculated by solving the equation for different values of fa (i.e., for different degrees of cell groth inhibition).
(§10) Data were analyzed using CalcuSyn software (Biosoft, Cambridge, UK). For statistical analysis and graphs Prism software (GraphPad, San Diego, USA) was used. All the results represent the mean of at least three independent experiments.
as §5
(§11) In the second set of assays, concentration-response curves for the agents tested, both alone and in two-drug combination, were performed.

[12] = system: RAMOS human lymphoma cell line; experiment: cells; details: Homo sapiens, Ramos, 72 h
Procedure: as §6, §7, §8, §9, §10, §5, §11

[13] = system: HGC-27 human gastric carcinoma cell line; experiment: cells; details: Homo sapiens, HGC-27, 72 h
[14] = system: SK-MEL-2 human melanoma cell line; experiment: cells; details: Homo sapiens, SK-MEL-2, 72 h
Procedure: as §1, §2, §3, §4, §5
SK-MEL-2 was the human melanoma cell line selected for this assay.

[15] = system: JURKAT human leukemia cell line; experiment: cells; details: Homo sapiens, Jurkat, 72 h
Procedure: as §5
(§12) JURKAT and MOLT-4 were the human leukemia cell lines selected for this assay, which were obtained from the American Type Culture Collection (ATCC).
as §6, §7
(§13) b. In a second set of experiments, concentration-response curves for the agents tested, both alone and in two-drug combination, were performed, using the same methodology described in the previous paragraph.
as §8, §9, §10

[16] = system: MOLT-4 human leukemia cell line; experiment: cells; details: Homo sapiens, MOLT-4, 72 h
Procedure: as §5, §12, §6, §7, §13, §8, §9, §10

[17] = gemcitabine 45.0 mg/kg iv days 0,7,14
[18] = gemcitabine 90.0 mg/kg iv days 0,7,14
[19] = gemcitabine 135.0 mg/kg iv days 0,7,14
[20] = gemcitabine 180.0 mg/kg iv days 0,7,14
[21] = HepG2, 72 hours drug exposure, MTT, read-out: IC50

## Nc1ccn([C@@H]2O[C@H](CO)[C@@H](O)C2(F)F)c(=O)n1 [Gemcitabine, gemcitabine]
[1]
  IC50: 400 nM
[2]
  IC50: 0.434 nM
[3]
  IC50: 6.34 nM
[4]
  IC50: 400 nM
[5]
  IC50: 1000 nM
[6]
  IC50: 450 nM
[7]
  IC50: 500 nM
[8]
  IC50: 8.5 nM
SW1990 tumors; [17]
  % T/C on day 0: 102.3%
  % T/C on day 3: 85.5%
  % T/C on day 6: 70.3%
  % T/C on day 8: 70.5%
  % T/C on day 10: 63.3%
  % T/C on day 13: 64.8%
  % T/C on day 15: 63.1%
  % T/C on day 17: 58.5%
  % T/C on day 20: 58.7%
  % T/C on day 22: 57.3%
  % T/C on day 24: 65.2%
  % T/C on day 28: 59.3%
SW1990 tumors; [18]
  % T/C on day 0: 103.8%
  % T/C on day 3: 70.0%
  % T/C on day 6: 73.8%
  % T/C on day 8: 63.3%
  % T/C on day 10: 55.6%
  % T/C on day 13: 54.8%
  % T/C on day 15: 49.9%
  % T/C on day 20: 47.6%
  % T/C on day 22: 47.0%
  % T/C on day 24: 45.9%
  % T/C on day 28: 49.2%
SW1990 tumors; [19]
  % T/C on day 0: 102.3%
  % T/C on day 3: 78.3%
  % T/C on day 6: 71.9%
  % T/C on day 8: 63.7%
  % T/C on day 10: 55.4%
  % T/C on day 13: 52.7%
  % T/C on day 15: 54.8%
  % T/C on day 17: 51.2%
  % T/C on day 20: 49.5%
  % T/C on day 22: 48.7%
  % T/C on day 24: 49.8%
  % T/C on day 28: 49.5%
SW1990 tumors; [20]
  % T/C on day 0: 102.2%
  % T/C on day 3: 84.1%
  % T/C on day 6: 73.9%
  % T/C on day 8: 66.1%
  % T/C on day 10: 60.9%
  % T/C on day 13: 59.4%
  % T/C on day 15: 58.5%
  % T/C on day 17: 52.1%
  % T/C on day 20: 49.1%
  % T/C on day 22: 48.6%
  % T/C on day 24: 46.9%
  % T/C on day 28: 39.3%
[9]
  IC50: 0.28 nM
[10]; [21]
  IC50: 5.34 nM
[11]
  EC50: 32.7 nM
[12]
  EC50: 25.1 nM
[13]
  IC50: 0.534 nM

## CN(Cc1cnc2nc(N)nc(N)c2n1)c1ccc(C(=O)N[C@@H](CCC(=O)O)C(=O)O)cc1 [Methotrexate, methotrexate]
[14]
  IC50: 100000 nM
[3]
  IC50: 100000 nM
[4]
  IC50: 120000 nM
[15]
  EC50: 145 nM
[16]
  EC50: 43.9 nM
[5]
  IC50: 10000 nM
[6]
  IC50: 50000 nM
[7]
  IC50: 175000 nM
[8]
  IC50: 5940 nM
[10]; HepG2, 72 h
  IC50: 39.6 nM
[11]
  EC50: 26.3 nM
[12]
  EC50: 5020 nM
[13]
  IC50: 33 nM

## COc1c(C)cc2c(c1O)[C@@H]1[C@@H]3Cc4c(OC(C)=O)c(C)c5c(c4[C@H](CNC(=O)/C=C/c4cccc(C(F)(F)F)c4)N3[C@@H](O)[C@H](C2)N1C)OCO5 [PM00104]
[2]
  IC50: 3 nM
[14]
  IC50: 2 nM
[3]
  IC50: 3.3 nM
[4]
  IC50: 7.1 nM
[15]
  EC50: 4.83 nM
[16]
  EC50: 1.55 nM
[5]
  IC50: 7.89 nM
[7]
  IC50: 5.4 nM
[8]
  IC50: 1 nM
[9]
  IC50: 7 nM
[10]; [21]
  IC50: 3 nM
[11]
  EC50: 4.5 nM
[12]
  EC50: 4.35 nM
[13]
  IC50: 3.2 nM
